Test results taken from article PMC5851003 (ACS nano, 2018).

Legend:
CXCR-4 receptor = CXCR-4 receptor (Homo sapiens, UniProt P61073); format: binding; settings: A549 cells
[1] = molecular target: human α4β2 nicotinic acetylcholine receptor (nAChR) (Homo sapiens, UniProt P17787+P43681); format: binding; settings: SH-EP1-α4β2 cells
human α4β2 nicotinic acetylcholine receptor (nAChR), sequence (P43681 29-627 limits assumed): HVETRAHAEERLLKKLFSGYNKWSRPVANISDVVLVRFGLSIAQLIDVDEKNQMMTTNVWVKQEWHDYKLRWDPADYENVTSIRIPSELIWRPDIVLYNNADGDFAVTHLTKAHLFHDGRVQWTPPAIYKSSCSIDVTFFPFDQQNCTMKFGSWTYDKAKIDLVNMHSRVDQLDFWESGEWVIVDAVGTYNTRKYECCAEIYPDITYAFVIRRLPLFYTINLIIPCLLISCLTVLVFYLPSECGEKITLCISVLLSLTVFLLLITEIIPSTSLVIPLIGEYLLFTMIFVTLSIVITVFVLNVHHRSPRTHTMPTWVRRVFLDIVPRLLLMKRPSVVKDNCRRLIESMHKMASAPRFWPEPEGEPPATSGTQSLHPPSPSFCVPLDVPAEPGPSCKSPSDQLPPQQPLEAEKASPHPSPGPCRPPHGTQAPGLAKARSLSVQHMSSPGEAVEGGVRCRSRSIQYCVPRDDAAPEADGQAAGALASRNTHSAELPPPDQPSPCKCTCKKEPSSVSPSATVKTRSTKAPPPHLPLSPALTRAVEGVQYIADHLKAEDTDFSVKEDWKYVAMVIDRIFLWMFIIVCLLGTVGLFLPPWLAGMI
human α4β2 nicotinic acetylcholine receptor (nAChR), sequence (P17787 26-502): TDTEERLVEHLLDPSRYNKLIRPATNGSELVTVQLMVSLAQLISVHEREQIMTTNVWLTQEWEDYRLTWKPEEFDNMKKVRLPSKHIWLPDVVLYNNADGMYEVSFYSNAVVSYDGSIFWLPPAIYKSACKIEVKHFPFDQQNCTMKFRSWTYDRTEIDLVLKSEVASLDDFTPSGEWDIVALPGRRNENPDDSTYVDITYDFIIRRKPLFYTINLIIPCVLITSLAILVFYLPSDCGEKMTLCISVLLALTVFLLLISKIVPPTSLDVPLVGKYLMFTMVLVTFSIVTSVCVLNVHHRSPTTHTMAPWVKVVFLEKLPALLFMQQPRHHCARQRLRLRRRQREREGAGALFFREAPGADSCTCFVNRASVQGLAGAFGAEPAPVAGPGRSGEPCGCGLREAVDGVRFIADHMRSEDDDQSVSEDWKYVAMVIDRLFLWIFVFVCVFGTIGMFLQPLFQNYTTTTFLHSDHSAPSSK

CXCR-4 receptor, sequence (P61073 whole entry): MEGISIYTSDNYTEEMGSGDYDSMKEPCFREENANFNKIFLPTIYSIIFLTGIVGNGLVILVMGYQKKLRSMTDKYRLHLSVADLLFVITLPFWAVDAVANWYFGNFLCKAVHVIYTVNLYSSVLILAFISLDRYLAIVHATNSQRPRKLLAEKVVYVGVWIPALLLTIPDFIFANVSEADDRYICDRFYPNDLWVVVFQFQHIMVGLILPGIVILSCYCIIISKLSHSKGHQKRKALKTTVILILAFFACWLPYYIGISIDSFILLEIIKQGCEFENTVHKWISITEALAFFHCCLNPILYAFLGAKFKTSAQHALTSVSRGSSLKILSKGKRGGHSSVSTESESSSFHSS

| SMILES | binding induced membrane deformation, maximum value (CXCR-4 receptor) [nm] | maximum membrane deformation [1] |
| --- | --- | --- |
| c1cc(CN2CCCNCCNCCCNCC2)ccc1CN1CCCNCCNCCCNCC1 [AMD3100] | 46 | – |
| CC(=O)OCC[N+](C)(C)C [acetylcholine] | – | around 70 nm |
